From patent publication EP0110955B1, “BRAIN-SPECIFIC DRUG DELIVERY” (UNIVERSITY OF FLORIDA, priority 1982, dated 1983) come the findings set out here.

Data set [1] is described as follows: Enzymatic hydrolytic cleavage and rate of oxidation of compound 5c in rat liver homogenate (HPLC). The format is in vitro ADME, Sprague-Dawley rats. Conditions: rat, pH 7.4; 20% liver homogenate, 37°C, pseudo first order; read-out: apparent half-lives for the disappearance. The method, then:
(§1) A high pressure liquid chromatography (HPLC) method was developed for the studies of the degradation of the dihydropyridine dopamine derivative. The chromatographic analysis was performed on a component system consisting of a Waters Associate Model 6000A solvent delivery system, Model U6K injector and Model 440 dual channel absorbance detector operated at 254 and 280 nm. A 30 cm x 3.9 mm (internal diameter) reverse phase µBondapak C18 column (Waters Associates), operated at ambient temperature, was used for all separations. The mobile phase used for the separation of the dihydropyridine derivative, its degradation products and oxidation products consisted of 0.005 M solution of 1-heptanesul- fonic acid sodium salt (PIC B-7 Eastman Kodak) in CH3CN; 0.01 M aqueous dibasic ammonium phosphate (2.5:1). A peak was always shown at a retention time of 2.2 min which is believed to be a monodeacylated dihydropyridine derivative, since it eventually did result in 6a.
The liver homogenate was prepared by the following method. Three Sprague-Dawley rats were killed by decapitation and the livers were removed, weighed and homogenized by tissue homogenizer in 0.11 M aqueous phosphate buffer, pH 7.4, to make 20% liver homogenate. […] When all samples had been collected, they were centrifuged and each supernatant was filtered through Whatman 1 filter paper and analyzed by HPLC.

Data set [2] is described as follows: Enzymatic hydrolytic cleavage and rate of oxidation of compound 5c in human plasma (HPLC). The format is in vitro ADME. Conditions: 80% plasma, 37°C, pseudo first order, read-out: apparent half-lives for the disappearance. As for the experimental part: as §1
The freshly collected plasma used was obtained at the Civitan Regional Blood Center, Inc. (Gainesville, Florida) and contained about 80% plasma diluted with anticoagulant citrate phosphate dextrose solution U.S.P. The plasma was stored in a refrigerator and used the next day. […] When all samples had been collected, they were centrifuged and the supernatants were filtered through Whatman 1 filter papers and analyzed to HPLC.

Data set [3] is described as follows: Chemical oxidation by hydrogen peroxide and silver nitrate. Conditions: H2O2 or alcoholic AgNO3 solution. The class given is physicochemical. The method, then: The stability of the 1,4-dihydropyridine derivatives (5) was determined in the presence of the oxidizing agents, alcoholic AgN03 and hydrogen peroxide. The in vitro rates of oxidation of the 1,4-dihydropyridine derivative (5c) in 80% plasma, 20% brain homogenate, 20% liver homogenate and in whole blood were determined.
To 10 ml of 30% H202 was added 0.2 g of the dihydropyridine derivative (products of Examples 5 or 8). The mixture was stirred and samples were taken to check the UV spectrum.
To 5 ml of saturated methanolic AgN03 solution was added 1 ml of 5% methanolic solution of the dihydropyridine derivative. The mixture was shaken and left for 5 min for complete precipitation of silver, centrifuged and an aliquot was taken to check the UV spectrum. Complete oxidation to the quaternary salts was observed.

A short description of data set [4]: Enzymatic hydrolytic cleavage and rate of oxidation of compound 5c in human blood (HPLC). The format is in vitro ADME. The following applies: whole citrated blood, 37°C, pseudo first order, read-out: apparent half-lives for the disappearance. The method, then: as §1
The freshly collected heparinized blood was obtained at the Civitan Regional Blood Center, Inc. (Gainesville, Florida). The blood was stored in a refrigerator and used the next day. […] When all samples had been collected, they were centrifuged and the supernatants were filtered using Whatman 4 filter paper and analyzed by HPLC.

Data set [5] is described as follows: Enzymatic hydrolytic cleavage and rate of oxidation of compound 5c in rat brain homogenate (HPLC). The class given is in vitro ADME, Sprague-Dawley rats. The following applies: rat, pH 7.4; 20% brain homogenate, 37°C, pseudo first order; read-out: apparent half-lives for the disappearance. The method, then:
as §1
The brain homogenate was prepared by the following method. Five Sprague-Dawley rats were killed by decapitation and the brains were removed, weighed (total weight 9.85 g) and homogenized in 49.3 ml of aqueous 0.11 M phosphate buffer, pH 7.4. The homogenate was centrifuged and the supernatant was used for the test. […] Each supernatant was filtered through two Whatman 1 filter papers and analyzed by HPLC.

The nature of data set [6]: Concentration of compound 6a in brain and blood after parenteral administration of 5c. The format is in vivo, Male Sprague-Dawley rats. Conditions: after administration of 5c, rat. The method, then: The dihydropyridine derivative (5c) was then selected for the in vivo study. A solution in DMSO (dimethylsulfoxide) was injected through the jugular vein to a group of male Sprague-Dawley rats which were then sacrificed at various time intervals; their blood and brains were analyzed for the quaternary percursor of dopamine (6a). The in vivo dopaminergic activities of the selected compounds 5c vs. 6a were then determined.
Male Sprague-Dawley rats of average weight of 150 ± 10g were used. The rats were anesthetized with IM injection of Inovar and the jugular was exposed. Compound 5c was injected intrajugularly in the form of 10% solution in DMSO at a dose of 64.2 mg/kg (equivalent to 50 mg/kg compound 6a). The injection was given at a rate of 24 µl/min using a calibrated infusion pump. […] The weighed brain was homogenized with 0.5 ml of distilled water, 3 ml of acetonitrile was added and the mixture was rehomogenized thoroughly, centrifuged, filtered and then analyzed for compound 6a using the HPLC method. The tubes containing the blood were shaken vigorously, centrifuged, decanted and also analyzed for compound 6a using the HPLC method. Quantitation was done by using a recovery standard curve obtained by introducing a known amount of 6a in either brain homogenate or blood and then treated in the same manner. […]

The structures appear in SMILES notation.

As to `CN1C=CCC(C(=O)NCCc2ccc(OC(=O)C(C)(C)C)c(OC(=O)C(C)(C)C)c2)=C1` [5c, 1-Methyl-3-(N-[β-(3,4-dipivalyloxyphenyl)-ethyl]}carbamoyl-1,4-dihydropyridine], the results for the half-life at 900 µM in data set [1] and in data set [4] were 6 min and 18 min, respectively. For the same compound, in data set [2], the half-life at 3050 µM was 51 min. In addition, the “oxidation to the corresponding quaternary salt 6c” value in data set [3] was “quantitatively oxidized”. The half-life at 1800 µM in data set [5] is 17 min. For the same compound, the “formation of O-methyl metabolites (9, 10) in the brain” value in data set [6] is reported as “No formation of O-methyl metabolites (9, 10) could be detected”.
